Measurements reported in PMC5519579, “Inhibition of PAI-1 Activity by Toddalolactone as a Mechanism for Promoting Blood Circulation and Removing Stasis by Chinese Herb Zanthoxylum nitidum var. tomentosum” (Frontiers in Pharmacology, 2017).

Molecular target: T1, plasminogen activator inhibitor-1 (PAI-1) (Homo sapiens, UniProt P05121)
T1 construct: gene SERPINE1; recombinant human PAI-1
Experiment: chromogenic uPA/S-2444 assay with recombinant PAI-1; supported by SDS-PAGE of PAI-1/uPA complex and clot lysis assay
Format: biochemical

T1 sequence (P05121 24-402, other chains not shown): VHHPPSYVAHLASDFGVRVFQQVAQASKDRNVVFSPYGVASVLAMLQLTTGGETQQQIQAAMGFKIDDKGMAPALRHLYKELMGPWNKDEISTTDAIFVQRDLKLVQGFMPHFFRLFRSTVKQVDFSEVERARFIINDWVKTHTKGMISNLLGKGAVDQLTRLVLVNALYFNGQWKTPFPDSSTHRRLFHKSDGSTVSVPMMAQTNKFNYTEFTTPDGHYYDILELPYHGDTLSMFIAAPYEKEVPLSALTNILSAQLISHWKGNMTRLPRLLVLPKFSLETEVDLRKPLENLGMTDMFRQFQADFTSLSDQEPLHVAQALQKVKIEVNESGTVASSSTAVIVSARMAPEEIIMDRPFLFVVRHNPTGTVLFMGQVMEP

COc1cc2oc(=O)ccc2c(OC)c1C[C@@H](O)C(C)(C)O (single isomer, unassigned) [Peak 4, toddalolactone]
IC50: 37.3 ± 3.23 µM
